In patent US12357565B2, “Ocular implant containing a tyrosine kinase inhibitor” (Ocular Therapeutix, Inc., priority 2020, dated 2025):

How the values were obtained:
[1] = system: VEGF-induced vascular leakage; experiment: VEGF challenge in rabbits: vascular leakage scored by fluorescein angiography; format: in vivo; details: rabbit; 1.25 mg Avastin® alone (group 3)
[2] = 1.25 mg dose, rabbits (Sinapis et al., 2011); cited from earlier work
[3] = Rugo et al. 2005, patients; cited from earlier work

Compound	Time after which vascular leakage re-occurred (effect lasted until) [1] [months]	Half-life [2] [h]	Clearance half-life (t1/2) [3]
Avastin®: anti-VEGF therapeutic, 1.25 mg intravitreal	3	158	
CNC(=O)c1ccccc1Sc1ccc2c(/C=C/c3ccccn3)n[nH]c2c1 [axitinib, N-methyl-2-[3-((E)-2-pyridin-2-yl-vinyl)-1H-indazol-6-ylsulfanyl]-benzamide]			a few hours
